Experimental data: patent US10611720B2, “Composition for preventing or treating hair loss including benzene diamine derivative” (UNIST(ULSAN NATIONAL INSTITUTE OF SCIENCE AND TECHNOLOGY), priority 2017, dated 2020)

Legend:
SOX-9 [1] = assay: SOX-9 expression in hDPC cells under oligomer Aβ (confocal fluorescence); type: cell-based, human; conditions: hDPCs, 2 nM oligomer Aβ + 25 μg/ml compound, 3 days; for SOX-9 expression (confocal imaging, in words): Example 4, compared with cells treated with oligomer Aβ; for SOX-9 expression (average fluorescence intensity): normal group 220±12, oligomer Aβ control 12±4
Experimental: (§1) As in Example 2, examination was performed by using oligomer Aβ as a cytotoxic material for hDPC.
(§2) At 3 days after treatment of the derivatives, the cells were fixed with 4% paraformaldehyde solution, and washed with PBS, and then fluorescence of ROI (relative fluorescence intensity) was measured at 488 nm by a confocal microscope (CONFOCAL, LSM710, Carl Zeiss, Germany) to examine SOX-9 and Cola17a1 expressions. As in Example 2, examination was performed by using oligomer Aβ as a cytotoxic material for hDPC.
as §2, with “fluorescence” for “fluorescence of ROI (relative fluorescence intensity)”, “488 nm/565” for “488”, “hDPC. […] COL17A1 expression was inhibited in the cells (control group C) treated with the cytotoxic oligomer Aβ, as compared with the normal group.” for “hDPC.”

[2] = test system: human hair follicle dermal papilla cells (hDPCs); assay: Cell viability (MTT) of hDPCs under oligomer Aβ-induced cytotoxicity; conditions: hDPCs treated with 2 nM oligomer Aβ and 25 μg/ml compound, 72 hours, as compared with group (N)
Experimental: In order to examine effects of the benzene diamine derivates of the present disclosure on improvement of cell viability of hair follicular cells, human hair follicle dermal papilla cells (hDPCs) were treated with the benzene diamine derivates, and cell viability was examined. […] Therefore, examination was performed by using oligomer Aβ as a toxic material for hDPC.
In detail, 2×10^3 hDPCs were dispensed in a multi 96-well plate containing a DMEM medium supplemented with 10% FBS, and cultured in a CO2 incubator (Thermo Scientific) at 37° C., 5% CO2 for 24 hours. Thereafter, experiments were performed by using a normal group which was treated with only cells, a control group which was a group treated with 10 μl of 2 nM oligomer Aβ (oAβ) previously synthesized, and an experimental group which is prepared by treating the normal group with the same concentration of oligomer Aβ and 25 μg/ml of each benzene diamine derivate sample in water or DMSO. To examine cell viability at 72 hours after treatment of the cell line with the sample, 20 μl of 2% MTT solution was added to the cell culture medium. 3 hours later, to terminate the reaction, the culture medium was removed by aspiration, and 50 μl of DMSO was added. 30 minutes later, the reaction was terminated. Thereafter, OD value was measured at 570 nm by using a microplate reader (BioTek, Synergy HT, USA).

COL17A1 = COL17A1 expression in hDPC cells under oligomer Aβ (confocal fluorescence); type: cell-based, human; conditions: hDPCs, 2 nM oligomer Aβ + 25 μg/ml compound, 3 days; normal group 143±11, oligomer Aβ control 16±6
Experimental: as §1, §2
as §2, with “fluorescence” for “fluorescence of ROI (relative fluorescence intensity)”, “488 nm/565” for “488”, “hDPC. […] COL17A1 expression was inhibited in the cells (control group C) treated with the cytotoxic oligomer Aβ, as compared with the normal group.” for “hDPC.”

monomer/oligomer Aβ = assay: Monomer/oligomer Aβ expression in skin of hair loss mouse model, oral administration; type: in vivo; conditions: APP/PS/Tau mice, oral 100 μg/Kg twice a week, 2 months
SOX-9 [3] = assay: SOX-9 expression in skin of hair loss mouse model, oral administration; type: in vivo; conditions: APP/PS/Tau mice, oral 100 μg/Kg twice a week, 2 months
Experimental: (§3) Accordingly, the present inventors examined whether expressions of hair growth stimulating factors, SOX-2 and SOX-9 were increased in hair loss animal models by the benzene diamine derivates of the present disclosure. In order to examine SOX-2 and SOX-9 expressions inside skin tissues, APP/PS/Tau mouse which is a hair loss-induced mouse model was selected as a control group and C57BL6 mouse was selected as a normal group, as in Example 5. An experimental group was prepared by orally administering the control group with the benzene diamine derivate at a concentration of 100 μg/Kg/0.1 ml using a zonde twice a week. 2 months later, incision of the skin was performed under local anesthesia, and the skin tissues were fixed in 4% paraformaldehyde solution for 24 hours, and fixed in a plastic mold with O.C.T. Compound (SAKURA, USA) for cryostat sectioning. […] Thereafter, the plate was put on a slide glass and covered with a cover slide, and stored in a dark acrylic box, and fluorescence imaging was observed under a confocal microscope (LSM710, Carl Zeiss, Germany) by 405/488/565 nm laser. […]

[4] = test system: APP/PS/Tau mouse (hair loss-induced mouse model); assay: Hair growth change in hair loss mouse model, oral administration; type: in vivo; conditions: APP/PS/Tau mice, oral 100 μg/Kg twice a week for 2 months
Experimental: An experimental group was prepared by orally administering the control group with the benzene diamine derivate at a concentration of 100 μg/Kg/0.1 ml using a zonde twice a week, and then changes in appearance were observed.
In detail, APP/PS/Tau was purchased from Jackson lab (BAR HARBOR, USA), and APP/Tau female and APP/PSen1de9 purchased from Taconic (Hudson, USA) were cross-mated for 6 generations, and 4-month-old mouse models were obtained from F1. The mouse models were characterized by appearance of hair loss. The hair loss mouse models were divided into groups of 6 mice, and among the hair loss mouse models, the normal group and the control group were orally administered with a phosphate buffer carrier (PBS) for 2 months, and the experimental group was orally administered with 100 μl of N^1-(pyridin-2-ylmethyl)benzene-1,4-diamine (Compound 1) at a concentration of 100 μg/Kg twice a week for 2 months. Thereafter, changes in their appearance were compared.

SOX-2 = SOX-2 expression in skin of hair loss mouse model, oral administration; type: in vivo; conditions: APP/PS/Tau mice, oral 100 μg/Kg twice a week, 2 months
Experimental: as §3

Structure (SMILES) | SOX-9 expression (confocal imaging, in words) (SOX-9 [1]) | SOX-9 expression (average fluorescence intensity) (SOX-9 [1]) | cell viability [2] | COL17A1 expression (average fluorescence intensity) (COL17A1) | monomer/oligomer Aβ expression in skin (monomer/oligomer Aβ) | SOX-9 expression in skin (SOX-9 [3]) | hair loss (changes in appearance) [4] | SOX-2 expression in skin (SOX-2)
CC(=O)Nc1ccc(N)cc1 [Compound 5, N-(4-aminophenyl)acetamide] | more strongly promoted the expression | 325±45 AFI | 77±1% | 3±1 AFI |  |  |  | 
CC(=O)Nc1ccc(N(C)C)cc1 [Compound 4, N-(4-dimethylamino)phenyleneacetamide] | more strongly promoted the expression | 446±110 AFI | 74±3% | 2±1 AFI |  |  |  | 
CN(C)c1ccc(N)cc1 [Compound 3, N^1,N^1-dimethyl-1,4-phenylenediamine] |  | 157±21 AFI |  | 24±6 AFI |  |  |  | 
Nc1ccc(NCc2ccccn2)cc1 [Compound 1, N^1-(pyridin-2-ylmethyl)benzene-1,4-diamine] |  | 134±23 AFI | 82±2% | 152±13 AFI | decreased | remarkably increased | remarkable improvement in hair loss | remarkably expressed close to the normal group
c1ccc(CNc2ccc(N3CCOCC3)cc2)nc1 [Compound 2, 4-morpholino-N-(pyridin-2-ylmethyl)aniline] |  | 187±23 AFI | 87±5% | 234±31 AFI |  |  |  | 
CC(=O)Nc1ccc(NC(C)=O)cc1 [Compound 6, N,N-(1,4-phenylene)diacetate Amide] |  | 267±56 AFI | 86±1% | 226±34 AFI |  |  |  | 
